Experimental data from patent US12570612B2, “Substituted nitrogen heterocyclic compound and anesthetic effect thereof” (priority 2019, dated 2026).
pEC50: −log10 of the molar value. Where “and” joins values, the source holds several entries; their conditions need not be identical. Equal entries are not always repeated. Entries after “also recorded” stand apart in the source; their conditions may differ. Where two headings read alike, the source gives them in different places.

Tests used:
Sprague-Dawley rats [1] = settings: for Recovery time after stopping infusion: LORR maintained for 1 hour; for Recovery time after stopping infusion / Onset time: 2 times the MIR; for Onset time / Types and incidence of adverse reactions: continuous infusion; for Types and incidence of adverse reactions: (animals affected/animals)
Procedure: Adult male Sprague-Dawley rats with body weight ranging from 250 to 300 gm were selected for continuous infusion test. […] Time to recovery of righting reflex from stopping infusion, and time to fully awake from stopping infusion were recorded.

Sprague-Dawley rats [2] = assay: animal or person; settings: for Approximate therapeutic index / Minimal lethal dose: rats
Procedure: (§1) Adult male Sprague-Dawley rats (250-300 g) were selected for the experiment. […] The anesthesia effects of the compounds were assessed in rats using a LORR assay and a period >30 s was considered as an indicator of general anesthesia.

H295R cell line [3] = assay: Adrenocortical function in vitro test: secretion of cortisol and corticosterone, Group A compounds; type: cell-based; settings: H295 cells; for pEC50: 0.1-10000 nM, HPLC-MS/MS
Sprague-Dawley rats [4] = assay: Pharmacological characteristics at equivalent doses (2ED50), Group A compounds; type: in vivo; parameters: Sedation duration: unit not given here; settings: 2ED50, tail vein; for Types and incidence of adverse reactions: (animals affected/animals)
Sprague-Dawley rats [5] = assay: Continuous infusion at 2 times the MIR for 1 hour, Group B compounds; type: in vivo; settings: for Recovery time after stopping infusion: after 1 hour continuous infusion at 2 times the MIR; for Recovery time after stopping infusion / Onset time: rats; for Types and incidence of adverse reactions: Tongue stretching / Types and incidence of adverse reactions: Tremor: continuous infusion 2 x MIR 1 hour, rats affected/rats; for Onset time: continuous tail vein infusion at 2 times the MIR, emulsion
H295R cell line [6] = assay: Adrenocortical function in vitro test: secretion of cortisol and corticosterone, Group B compounds; type: cell-based; settings: H295R cells; for pEC50: 0.1-10000 nM, HPLC-MS/MS
Sprague-Dawley rats [7] = assay: animal or person; settings: for ED50: LORR in rats, tail vein, brackets = 95% confidence limit; for Approximate therapeutic index / Minimal lethal dose: rats
Procedure: as §1

[8] = read-out: EC50 (Corticosterone)
[9] = Homo sapiens, read-out: EC50 (Corticosterone)
[10] = Homo sapiens, read-out: EC50 (Cortisol)

For `COC1CC(OC(=O)c2c(F)cnn2C(C)c2ccccc2)C1` (stereo not drawn) [Compound A76], the “Recovery time after stopping infusion” value (Sprague-Dawley rats [1]) was 14 to 16 min, the Onset time (Sprague-Dawley rats [1]) was 3 to 4 min and the “Types and incidence of adverse reactions” value (Sprague-Dawley rats [1]) was “Tremor(1/6), Tongue; also recorded: stretching(2/6)”. For the same molecule, the ED50 (Sprague-Dawley rats [2]; LORR in rats, tail vein, brackets = 95% confidence limit) was “A (A indicates that the measured ED50 is in the range of 0.04-0.50 mg/kg (including 0.04 and 0.50 mg/kg))”, the Approximate therapeutic index (Sprague-Dawley rats [2]) was >10 and the Minimal lethal dose (Sprague-Dawley rats [2]) was >2 mg/kg. For the same molecule, the “Corticosterone as an indicator to determine the presence of inhibition” value (from here on “Corticosterone as an indicator … of inhibition”) (H295R cell line [3]) was 0, the “Cortisol as an indicator to determine the presence of inhibition” value (“Cortisol as an indicator … of inhibition” below) (H295R cell line [3]) was 0 and the pEC50 (H295R cell line [3]; [8]) was < 6.00. For the same molecule, the pEC50 (H295R cell line [3]; read-out: EC50 (Cortisol)) was < 6.00, the Onset time (Sprague-Dawley rats [4]) was 0.36 ± 0.12 min and the Righting reflex duration (Sprague-Dawley rats [4]) was 2.29 ± 0.56 min. The Sedation duration (Sprague-Dawley rats [4]) was 9.08 ± 2.16 and the “Types and incidence of adverse reactions” value (Sprague-Dawley rats [4]) was “Red urine(8/8),; also recorded: Tremor(2/8),; also recorded: Euphoria(1/8)”.

For `CC(=O)C1=C(OC(=O)c2c(F)cnn2[C@H](C)c2ccccc2)CCC1` [Compound A90], the “Recovery time after stopping infusion” value (Sprague-Dawley rats [1]) was 2 to 15 min, the Onset time (Sprague-Dawley rats [1]) was 5 to 6 min and the “Types and incidence of adverse reactions” value (Sprague-Dawley rats [1]) was “Tremor(3/6)”. The ED50 (Sprague-Dawley rats [2]; Rattus norvegicus) was 1 to 2 mg/kg, the Approximate therapeutic index (Sprague-Dawley rats [2]) was >5 and the Minimal lethal dose (Sprague-Dawley rats [2]) was >10 mg/kg. For the same molecule, the “Corticosterone as an indicator … of inhibition” value (H295R cell line [3]) was 0, the “Cortisol as an indicator … of inhibition” value (H295R cell line [3]) was 0 and the pEC50 (H295R cell line [3]; [9]) was < 6.00. For the same molecule, the pEC50 (H295R cell line [3]; [10]) was < 6.00, the Onset time (Sprague-Dawley rats [4]) was 0.51 ± 0.07 min and the Righting reflex duration (Sprague-Dawley rats [4]) was 5.21 ± 1.45 min. The “Types and incidence of adverse reactions” value (Sprague-Dawley rats [4]) was “Red and urine(8/8), Convulsions(2/ and 8), Nod(1/8)”.

For `CCOC(=O)c1c(Br)nnn1[C@H](C)c1ccccc1` [Compound B118], the “Recovery time after stopping infusion” value (Sprague-Dawley rats [5]) was 13 to 15 min, the “Types and incidence of adverse reactions: Tongue stretching” value (Sprague-Dawley rats [5]) was “stretching(4/6)” and the “Types and incidence of adverse reactions: Tremor” value (“Types and incidence … Tremor” for short) (Sprague-Dawley rats [5]) was “Tremor(4/6), Tongue”. The Onset time (Sprague-Dawley rats [5]) was 6 to 7 min, the “Corticosterone as an indicator … of inhibition” value (H295R cell line [6]) was 0 and the “Cortisol as an indicator … of inhibition” value (H295R cell line [6]) was 0. For the same molecule, the pEC50 (H295R cell line [6]; [8]) was < 6.00, the pEC50 (H295R cell line [6]; read-out: EC50 (Cortisol)) was < 6.00 and the ED50 (Sprague-Dawley rats [7]) was “C (C indicates that the measured ED50 is in the range of 1.00-2.00 mg/kg (excluding 1.00 mg/kg, including 2.00 mg/kg))”. The Approximate therapeutic index (Sprague-Dawley rats [7]) was >12 and the Minimal lethal dose (Sprague-Dawley rats [7]) was >17 mg/kg.

For `C[C@H](c1ccccc1)n1nncc1C(=O)OC(C)(C)C` [Compound B12], the “Recovery time after stopping infusion” value (Sprague-Dawley rats [5]) was 13 to 15 min, the “Types and incidence … Tremor” value (Sprague-Dawley rats [5]) was “Tremor(3/6)” and the Onset time (Sprague-Dawley rats [5]) was 5 to 6 min. The “Corticosterone as an indicator … of inhibition” value (H295R cell line [6]) was 0, the “Cortisol as an indicator … of inhibition” value (H295R cell line [6]) was 0 and the pEC50 (H295R cell line [6]; [8]) was < 6.00. The pEC50 (H295R cell line [6]; read-out: EC50 (Cortisol)) was < 6.00, the ED50 (Sprague-Dawley rats [7]) was “A (A indicates that the measured ED50 is in the range of 0.04-0.50 mg/kg (including 0.04 and 0.50 mg/kg))” and the Approximate therapeutic index (Sprague-Dawley rats [7]) was >16. The Minimal lethal dose (Sprague-Dawley rats [7]) was >5 mg/kg.

`C[C@H](c1ccccc1)n1nccc1C(=O)OC1CCC1` [Compound A4] was tested, and the “Recovery time after stopping infusion” value (Sprague-Dawley rats [1]) was 14 to 16 min, the Onset time (Sprague-Dawley rats [1]) was 4 to 5 min and the “Types and incidence of adverse reactions” value (Sprague-Dawley rats [1]) was “Tremor(3/6), Tongue; also recorded: stretching(4/6)”. For the same molecule, the ED50 (Sprague-Dawley rats [2]; Rattus norvegicus) was 1 to 2 mg/kg, the Approximate therapeutic index (Sprague-Dawley rats [2]) was >11 and the Minimal lethal dose (Sprague-Dawley rats [2]) was >15 mg/kg. For the same molecule, the “Corticosterone as an indicator … of inhibition” value (H295R cell line [3]) was 0, the “Cortisol as an indicator … of inhibition” value (H295R cell line [3]) was 0 and the pEC50 (H295R cell line [3]; [9]) was < 6.00. For the same molecule, the pEC50 (H295R cell line [3]; [10]) was < 6.00, the Onset time (Sprague-Dawley rats [4]) was 0.52 ± 0.21 min and the Righting reflex duration (Sprague-Dawley rats [4]) was 1.39 ± 0.66 min. For the same molecule, the “Types and incidence of adverse reactions” value (Sprague-Dawley rats [4]) was “Red urine(6/6),; also recorded: Euphoria(5/6), Hindlimb; also recorded: rigidity(1/6)”.

With `C[C@H](c1ccccc1)n1nncc1C(=O)OC1CCC1` [Compound B6] the “Recovery time after stopping infusion” value (Sprague-Dawley rats [5]) was 14 to 16 min, the “Types and incidence of adverse reactions: Tongue stretching” value (Sprague-Dawley rats [5]) was “stretching(2/6)” and the “Types and incidence … Tremor” value (Sprague-Dawley rats [5]) was “Tremor(2/6), Tongue”. The Onset time (Sprague-Dawley rats [5]) was 4 to 6 min, the “Corticosterone as an indicator … of inhibition” value (H295R cell line [6]) was 0 and the “Cortisol as an indicator … of inhibition” value (H295R cell line [6]) was 0. For the same molecule, the pEC50 (H295R cell line [6]; [8]) was < 7.00, the pEC50 (H295R cell line [6]; read-out: EC50 (Cortisol)) was < 7.00 and the ED50 (Sprague-Dawley rats [7]) was “A (A indicates that the measured ED50 is in the range of 0.04-0.50 mg/kg (including 0.04 and 0.50 mg/kg))”. The Approximate therapeutic index (Sprague-Dawley rats [7]) was >71 and the Minimal lethal dose (Sprague-Dawley rats [7]) was >10 mg/kg.
